# Test results as given in patent US11034692B1 (Genentech, Inc., priority 2017, dated 2021).
# Biological target: HPK1
# Experiment: HPK1 Lantha Binding Assay ("Lanth")
# Conditions: Table B1-1, read-out: HPK1 Ki (μM) (Lanth)
# How it was run: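 TR-FRET tracer displacement with 2 nM GST-tagged kinase, 2 nM Eu-anti-GST antibody and 15 nM Tracer222 at 23 C. Enzyme–antibody preincubated 1 h with compound, then tracer added for 1 h; 340 nm excitation, 615/665 nm emission. Ki from Morrison fit over an 11-point 5-fold dilution.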
row,SMILES,Ki [nM]
1,"Cc1ccncc1-c1cc2cc(NC(=O)[C@@H]3C[C@H]3c3cnn(CCOCCN)c3)ncc2c(N)n1 [Compound 293, (1R,2R)—N-[8-amino-6-(4-methylpyridin-3-yl)-2,7-naphthyridin-3-yl]-2-[1-[2-(2-aminoethoxy)ethyl]-1H-pyrazol-4-yl]cyclopropane-1-carboxamide]",0.668
2,"NCCOCCn1cc([C@H]2C[C@@H]2C(=O)Nc2cc3cc(-c4c(Cl)cccc4Cl)nc(N)c3cn2)cn1 [Compound 295, (1S,2S)—N-[8-amino-6-(2,6-dichlorophenyl)-2,7-naphthyridin-3-yl]-2-[1-[2-(2-aminoethoxy)ethyl]-1H-pyrazol-4-yl]cyclopropane-1-carboxamide]",0.287
3,"NCCOCCn1cc([C@@H]2C[C@H]2C(=O)Nc2cc3cc(-c4c(Cl)cccc4Cl)nc(N)c3cn2)cn1 [Compound 296, (1R,2R)—N-[8-amino-6-(2,6-dichlorophenyl)-2,7-naphthyridin-3-yl]-2-[1-[2-(2-aminoethoxy)ethyl]-1H-pyrazol-4-yl]cyclopropane-1-carboxamide]",0.026
4,"Cc1ccccc1-c1cc2cc(NC(=O)[C@@H]3C[C@H]3c3cnn(C)c3)ncc2c(N)n1 [Compound 298, (1R,2R)—N-[8-amino-6-(2-methylphenyl)-2,7-naphthyridin-3-yl]-2-(1-methyl-1H-pyrazol-4-yl)cyclopropane-1-carboxamide]",0.932
5,"Cc1ccccc1-c1cc2cc(NC(=O)[C@H]3C[C@@H]3c3cnn(C)c3)ncc2c(N)n1 [Compound 299, (1S,2S)—N-[8-amino-6-(2-methylphenyl)-2,7-naphthyridin-3-yl]-2-(1-methyl-1H-pyrazol-4-yl)cyclopropane-1-carboxamide]",0.0359
6,"Cc1ccc(C#N)cc1-c1cc2cc(NC(=O)[C@@H]3C[C@H]3c3cnn(C)c3)ncc2c(N)n1 [Compound 300, (1R,2R)—N-[8-amino-6-(5-cyano-2-methylphenyl)-2,7-naphthyridin-3-yl]-2-(1-methyl-1H-pyrazol-4-yl)cyclopropane-1-carboxamide]",1.36
7,"Cc1ccc(C#N)cc1-c1cc2cc(NC(=O)[C@H]3C[C@@H]3c3cnn(C)c3)ncc2c(N)n1 [Compound 301, (1S,2S)—N-[8-amino-6-(5-cyano-2-methylphenyl)-2,7-naphthyridin-3-yl]-2-(1-methyl-1H-pyrazol-4-yl)cyclopropane-1-carboxamide]",0.0692
8,"Cn1cc([C@@H]2C[C@H]2C(=O)Nc2cc3cc(-c4c(F)cccc4Cl)nc(N)c3cn2)cn1 [Compound 302, (1R,2R)—N-(8-amino-6-(2-chloro-6-fluorophenyl)-2,7-naphthyridin-3-yl)-2-(1-methyl-1H-pyrazol-4-yl)cyclopropanecarboxamide]",0.65
9,"Cn1cc([C@H]2C[C@@H]2C(=O)Nc2cc3cc(-c4c(F)cccc4Cl)nc(N)c3cn2)cn1 [Compound 303, (1S,2S)—N-(8-amino-6-(2-chloro-6-fluorophenyl)-2,7-naphthyridin-3-yl)-2-(1-methyl-H-pyrazol-4-yl)cyclopropanecarboxamide]",0.027
10,"Cn1cc([C@H]2C[C@@H]2C(=O)Nc2cc3cc(-c4ccccc4Cl)nc(N)c3cn2)cn1 [Compound 305, (1R,2R)—N-[8-amino-6-(2-chlorophenyl)-2,7-naphthyridin-3-yl]-2-(1-methyl-H-pyrazol-4-yl)cyclopropane-1-carboxamide]",0.152
11,"Cc1cc(-c2ncco2)ncc1-c1cc2cc(NC(=O)[C@H]3C[C@@H]3c3cnn(C)c3)ncc2c(N)n1 [Compound 308, (1S,2S)—N-[8-amino-6-[4-methyl-6-(1,3-oxazol-2-yl)pyridin-3-yl]-2,7-naphthyridin-3-yl]-2-(1-methyl-1H-pyrazol-4-yl)cyclopropane-1-carboxamide]",3.04
12,"Cc1cc(-c2ncco2)ncc1-c1cc2cc(NC(=O)[C@@H]3C[C@H]3c3cnn(C)c3)ncc2c(N)n1 [Compound 309, (1R,2R)—N-[8-amino-6-[4-methyl-6-(1,3-oxazol-2-yl)pyridin-3-yl]-2,7-naphthyridin-3-yl]-2-(1-methyl-1H-pyrazol-4-yl)cyclopropane-1-carboxamide]",0.184
13,"N#CC[C@H]1C[C@@H]1C(=O)Nc1cc2cc(-c3c(Cl)cccc3Cl)nc(N)c2cn1 [Compound 310, (1S,2R)—N-(8-amino-6-(2,6-dichlorophenyl)-2,7-naphthyridin-3-yl)-2-(cyanomethyl)cyclopropanecarboxamide]",0.0675

# Continued, values first:
row,Ki [nM],SMILES
1,1.15,"N#CC[C@@H]1C[C@H]1C(=O)Nc1cc2cc(-c3c(Cl)cccc3Cl)nc(N)c2cn1 [Compound 311, (1R,2S)—N-(8-amino-6-(2,6-dichlorophenyl)-2,7-naphthyridin-3-yl)-2-(cyanomethyl)cyclopropanecarboxamide]"
2,5.77,"Cc1ccncc1-c1cc2cc(NC(=O)[C@@H]3C[C@@]34CCNC(=O)C4)ncc2c(N)n1 [Compound 312, (1R,3S)—N-[8-amino-6-(4-methylpyridin-3-yl)-2,7-naphthyridin-3-yl]-5-oxo-6-azaspiro[2.5]octane-1-carboxamide]"
3,0.02,"Cc1ccncc1-c1cc2cc(NC(=O)[C@H]3C[C@]34CCNC(=O)C4)ncc2c(N)n1 [Compound 313, (1S,3R)—N-[8-amino-6-(4-methylpyridin-3-yl)-2,7-naphthyridin-3-yl]-5-oxo-6-azaspiro[2.5]octane-1-carboxamide]"
4,13.1,"Cc1ccncc1-c1cc2cc(NC(=O)[C@H]3C[C@@]34CCNC(=O)C4)ncc2c(N)n1 [Compound 314, (1S,3S)—N-[8-amino-6-(4-methylpyridin-3-yl)-2,7-naphthyridin-3-yl]-5-oxo-6-azaspiro[2.5]octane-1-carboxamide]"
5,12.2,"Cc1ccncc1-c1cc2cc(NC(=O)[C@@H]3C[C@]34CCNC(=O)C4)ncc2c(N)n1 [Compound 315, (1R,3R)—N-[8-amino-6-(4-methylpyridin-3-yl)-2,7-naphthyridin-3-yl]-5-oxo-6-azaspiro[2.5]octane-1-carboxamide]"
6,0.522,"Cc1ccncc1-c1nc(N)c2cnc(NC(=O)[C@@H]3C[C@H]3CC#N)cc2c1C1CC1 [Compound 316, (1R,2S)—N-(8-amino-5-cyclopropyl-6-(4-methylpyridin-3-yl)-2,7-naphthyridin-3-yl)-2-(cyanomethyl)cyclopropanecarboxamide]"
7,0.02,"Cc1ccncc1-c1nc(N)c2cnc(NC(=O)[C@H]3C[C@@H]3CC#N)cc2c1C1CC1 [Compound 317, (1S,2R)—N-(8-amino-5-cyclopropyl-6-(4-methylpyridin-3-yl)-2,7-naphthyridin-3-yl)-2-(cyanomethyl)cyclopropanecarboxamide]"
8,0.032,"Cc1ccnc(-c2ccccc2)c1-c1cc2cc(NC(=O)[C@H]3C[C@@H]3c3cnn(C)c3)ncc2c(N)n1 [Compound 318, (1S,2S)—N-(8-amino-6-(4-methyl-2-phenylpyridin-3-yl)-2,7-naphthyridin-3-yl)-2-(1-methyl-1H-pyrazol-4-yl)cyclopropanecarboxamide]"
9,0.02,"Cc1ccnc(-c2ccccc2)c1-c1cc2cc(NC(=O)[C@@H]3C[C@H]3c3cnn(C)c3)ncc2c(N)n1 [Compound 319, (1R,2R)—N-(8-amino-6-(4-methyl-2-phenylpyridin-3-yl)-2,7-naphthyridin-3-yl)-2-(1-methyl-1H-pyrazol-4-yl)cyclopropanecarboxamide]"
10,7.82,"Cc1ccncc1-c1cc2cc(NC(=O)[C@H]3CC[C@@H]3C)ncc2c(N)n1 [Compound 320, (1S,2S)—N-(8-amino-6-(4-methylpyridin-3-yl)-2,7-naphthyridin-3-yl)-2-methylcyclobutanecarboxamide]"
11,57.4,"Cc1ccncc1-c1cc2cc(NC(=O)[C@H]3CC[C@H]3C)ncc2c(N)n1 [Compound 321, (1S,2R)—N-(8-amino-6-(4-methylpyridin-3-yl)-2,7-naphthyridin-3-yl)-2-methylcyclobutanecarboxamide]"
12,14.8,"Cc1ccncc1-c1cc2cc(NC(=O)[C@@H]3CC[C@H]3C)ncc2c(N)n1 [Compound 322, (1R,2R)—N-(8-amino-6-(4-methylpyridin-3-yl)-2,7-naphthyridin-3-yl)-2-methylcyclobutanecarboxamide]"
13,76.3,"Cc1ccncc1-c1cc2cc(NC(=O)[C@@H]3CC[C@@H]3C)ncc2c(N)n1 [Compound 323, (1R,2S)—N-(8-amino-6-(4-methylpyridin-3-yl)-2,7-naphthyridin-3-yl)-2-methylcyclobutanecarboxamide]"
14,0.48,"Cc1ccncc1-c1cc2cc(NC(=O)[C@H]3C[C@@H]3C3CCOCC3)ncc2c(N)n1 [Compound 324, (1S,2R)—N-[8-amino-6-(4-methylpyridin-3-yl)-2,7-naphthyridin-3-yl]-2-(oxan-4-yl)cyclopropane-1-carboxamide]"
15,3.43,"Cc1ccncc1-c1cc2cc(NC(=O)[C@@H]3C[C@H]3C3CCOCC3)ncc2c(N)n1 [Compound 325, (1R,2S)—N-[8-amino-6-(4-methylpyridin-3-yl)-2,7-naphthyridin-3-yl]-2-(oxan-4-yl)cyclopropane-1-carboxamide]"
16,0.074,"Cc1ccncc1-c1cc2cc(NC(=O)[C@@H]3[C@@H](C)[C@H]3c3cnn(C)c3)ncc2c(N)n1 [Compound 326, (1R,2S,3R)—N-[8-amino-6-(4-methylpyridin-3-yl)-2,7-naphthyridin-3-yl]-2-methyl-3-(1-methyl-1H-pyrazol-4-yl)cyclopropane-1-carboxamide]"
17,1.43,"Cc1ccncc1-c1cc2cc(NC(=O)[C@H]3[C@H](C)[C@@H]3c3cnn(C)c3)ncc2c(N)n1 [Compound 327, (1S,2R,3S)—N-[8-amino-6-(4-methylpyridin-3-yl)-2,7-naphthyridin-3-yl]-2-methyl-3-(1-methyl-1H-pyrazol-4-yl)cyclopropane-1-carboxamide]"
18,2.65,"Cc1ccncc1-c1cc2cc(NC(=O)[C@@H]3[C@H](C)[C@H]3c3cnn(C)c3)ncc2c(N)n1 [Compound 329, (1R,2R,3R)—N-[8-amino-6-(4-methylpyridin-3-yl)-2,7-naphthyridin-3-yl]-2-methyl-3-(1-methyl-1H-pyrazol-4-yl)cyclopropane-1-carboxamide]"
